Assay [1] relates to E. coli co-producing MBLs and class A/D serine carbapenemases. Put plainly: Carbapenem MIC, E. coli co-producing MBLs and class A/D serine carbapenemases. The format is cell-based. The conditions noted are these: carbapenem alone or with 50µM ZN148. How it is done: (§1) MICs of carbapenems alone and in combination with inhibitors were determined by broth microdilution according to the Clinical and Laboratory Standards Institute (CLSI) guidelines ([48]) using either premade plates (TREK Diagnostic Systems/Thermo Fisher Scientific, East Grinstead, United Kingdom) with meropenem or in-house-prepared plates with meropenem, imipenem, and doripenem. ZN148 and other inhibitors were tested at a fixed concentration of 50 μM. Cation-adjusted Mueller-Hinton medium (TREK Diagnostic Systems/Thermo Fisher Scientific; Becton Dickinson, Franklin Lakes, NJ) were used as growth medium. The plates were incubated for 20 h at 37°C. ZN148, ZN222, ZN223, ZN228, and TPA were initially tested in combination with meropenem using two indicator strains: NDM-1-producing K. pneumoniae ([49], [50]) and VIM-2-producing P. aeruginosa ([51]). The activity of ZN148 were subsequently tested against two extended strain collections: (i) in combination with meropenem against MBL-producing Enterobacterales (n = 62), MBL-producing P. aeruginosa (n = 9) and MBL- and class D carbapenemase-coproducing Enterobacterales (n = 5) from the strain collection at the Norwegian National Advisory Unit on Detection of Antimicrobial Resistance and (ii) in combination with meropenem, imipenem, and doripenem against globally collected MBL-producing E. coli (n = 87), K. pneumoniae (n = 85), P. aeruginosa (n = 52), and A. baumannii (n = 6), MBL- and class A/D carbapenemase-coproducing E. coli (n = 11), K. pneumoniae (n = 15) and A. baumannii (n = 7) at IHMA Europe, Sàrl, Switzerland. E. coli ATCC 25922 and P. aeruginosa ATCC 27853 were used as quality control strains. The MBL inhibitors were also tested for intrinsic antibacterial activity against the strains.

In assay [2] the test system is K. pneumoniae co-producing MBLs and class A/D serine carbapenemases. Put plainly: Carbapenem MIC, K. pneumoniae co-producing MBLs and class D carbapenemases. It counts as cell-based. The conditions noted are these: carbapenem alone or with 50µM ZN148, one value per strain. How it is done:
as §1

For assay [3], the system named is A. baumannii co-producing MBLs and class A/D serine carbapenemases. Nature of the assay: Carbapenem MIC, A. baumannii co-producing NDM-1 and class D carbapenemases. The format is cell-based. The conditions noted are these: carbapenem alone or with 50µM ZN148, one value per strain. As for the experimental part:
as §1

Assay [4] relates to class A carbapenemase (KPC)-producing E. coli. Put plainly: Carbapenem MIC, class A carbapenemase-producing E. coli. The format is cell-based. The conditions noted are these: carbapenem alone or with 50µM ZN148. As for the experimental part: as §1
Assay [5] has as its system class A carbapenemase (KPC)-producing E. cloacae. Put plainly: Carbapenem MIC, class A carbapenemase-producing E. cloacae. It counts as cell-based. The conditions noted are these: carbapenem alone or with 50µM ZN148. As for the experimental part: as §1
Assay [6] has as its system NDM-1-producing A. baumannii strains (n=6). Nature of the assay: Carbapenem MIC, NDM-1-producing A. baumannii. It counts as cell-based. The conditions noted are these: carbapenem alone or in combination with 50µM ZN148; one value per strain (n=6). How it is done: as §1
Assay [7] concerns VIM-2-producing P. aeruginosa K34-7. Nature of the assay: Meropenem MIC, broth microdilution, indicator strain K34-7. It counts as cell-based. The conditions noted are these: meropenem alone or in combination with 50 μM of the labelled inhibitor. As for the experimental part: as §1
Assay [8] deals with NDM-1-producing K. pneumoniae K66-45. Nature of the assay: Meropenem MIC, broth microdilution, indicator strain K66-45. The format is cell-based. The conditions noted are these: meropenem alone or in combination with 50 μM of the labelled inhibitor. How it is done: as §1
Another assay deals with T1, NDM-1 (Klebsiella pneumoniae, UniProt C7C422).
T1 construct: made in house
Nature of the assay: Time-dependent inactivation kinetics of purified NDM-1 (imipenem). It counts as biochemical. How it is done:
(§2) Protein expression and purification of NDM-1 and VIM-2 were performed as previously described ([36], [43], [57]). Stock solutions of purified NDM-1 and VIM-2 were prepared in 50 mM HEPES buffer (pH 7.5; Merck). Inhibition of NDM-1 and VIM-2 were determined for ZN148 and the analogues ZN222, ZN223, and ZN228 at different concentrations of inhibitor after preincubation times of 2, 8, 15, 25, and 32 min in 50 mM HEPES buffer (pH 7.5) supplemented with 1 μM ZnSO4 (Sigma-Aldrich) and bovine serum albumin (Sigma-Aldrich; final concentration, 2 μg/ml) at 25°C. Concentrations of 1 nM VIM-2 and 30 nM NDM-1 were used, and the reaction was initiated by the addition of 30 μM nitrocefin (Merck) for VIM-2 or 100 μM imipenem (Sigma-Aldrich) for NDM-1. The reaction was measured at 482 nm (VIM-2) or […] (NDM-1) in either standard 96-well plates (Thermo Fisher Scientific) for VIM-2 or UV-transparent 96-well plates (Corning, Kennebunk, ME) for NDM-1 at 25°C in a SpectraMax Plus plate reader (Molecular Devices). All of the enzyme and substrate concentrations indicated are the final concentrations in the assay. The enzyme activity as a percentage was calculated based on the initial velocity and compared to the control without inhibitor compound. All tests were performed at least in duplicates.
(§3) The observed rate constant (kobs) per inhibitor concentration was calculated from the slope of a semilog plot of the enzyme activity in percent versus preincubation time.
(§4) By fitting these values, the irreversible kinetic parameters maximum inactivation rate (kinact) and the inhibitor concentration that produces half-maximal rate of inactivation (KI) were obtained. Finally, the inhibitors were characterized by calculating kinact/KI. Where no saturation curve could be observed, KI and kinact were determined from the linear part of plot 1/kobs versus 1/[I].

For assay [9], the target named is T2, VIM-2 (Escherichia coli, UniProt Q5U7L7).
T2 construct: made in house
Nature of the assay: Time-dependent inactivation kinetics of purified VIM-2 (nitrocefin). It counts as biochemical. How it is done: as §2, §3, §4

For assay [10], the target named is T2, VIM-2. It counts as biochemical. The conditions noted are these: VIM-2 preincubated with inhibitor. As for the experimental part:
VIM-2 (0.4 μM) was preincubated on ice for 30 min with or without ZN148. Complete protein unfolding was archived in 50 mM HEPES buffer (pH 7.5) supplemented with 1 μM ZnSO4 (Sigma-Aldrich) and 8 M urea (Merck, Darmstadt, Germany). Refolding was achieved by a stepwise buffer exchange using centrifugal cutoff filters (10 kDa; Merck) and decreasing concentrations of urea ([…] in 50 mM HEPES buffer [pH 7.5]). VIM-2 was diluted to a final concentration of 1 nM, and the enzyme activity was measured by adding nitrocefin (Merck) to a final concentration of 50 μM.

Assay [11] concerns the target T2, VIM-2. The format is biochemical. The conditions noted are these: after incubation with inhibitor and its removal (PD-10); 100 μM ZnSO4. As for the experimental part: For reversibility of enzyme activity after incubation with ZN148, 3 ml of VIM-2 or NDM-1 was diluted with or without ZN148 in Chelex HEPES buffer (pH 7.5) and subsequently incubated for 1 h on ice. Then, 2.5 ml of each solution was loaded onto an equilibrated PD-10 column (GE Healthcare, Pittsburgh, PA), washed with 1 ml, and eluted with 1.5 ml of Chelex HEPES buffer (pH 7.5), respectively. Samples spiked and not spiked with inhibitor were diluted to a final enzyme concentration of 1 nM VIM-2 and 3 nM NDM-1. The initial reaction velocity was determined by adding nitrocefin (Merck) for VIM-2 or imipenem (Sigma-Aldrich) for NDM-1 at final concentrations of 50 and 100 μM, respectively. The initial enzyme reactions were recorded at 25°C. Inhibitor and enzyme alone were included as controls. All measurements were performed at least in duplicates. For enzyme restorability, pre- and postcolumn samples were supplemented with ZnSO4 (Sigma-Aldrich) to a final concentration of 100 μM and allowed to incubate for 5 min at 25°C. The initial enzyme velocity was then determined as described above.

The conditions of assay [12]: read-out: affinity toward Zn^2+; cited from earlier work.
In the next assay the test system is HepG2 cells. Nature of the assay: In vitro toxicity, alamarBlue viability. The format is cell-based, human. The conditions noted are these: 24 h. As for the experimental part:
The human hepatoblastoma HepG2 cell line (HB-8065; ATCC, Manassas, VA) was cultured in DMEM-GlutaMAX (5.5 mM glucose; Thermo Fisher) supplemented with 10% fetal bovine serum (Sigma-Aldrich), streptomycin (100 μg/ml; Gibco/Thermo Fisher), and penicillin (100 U/ml; Gibco/Thermo Fisher) at 37°C in 5% CO2. For viability assays, cells were seeded in white 96-well Nunclon plates (Sigma-Aldrich) at a density of 20,000 cells/well and left overnight to adhere. ZN148 and TPA (Sigma-Aldrich, Darmstadt, Germany) dissolved in dimethyl sulfoxide (DMSO; (Sigma-Aldrich) were added to the white 96-well plates containing 20,000 HepG2 cells/well at concentrations ranging from 1 to 1 × 10^−3 mM (a DMSO concentration kept below 1%), followed by incubation for 24 h at 37°C in 5% CO2. After 24 h, alamarBlue cell viability reagent (Thermo Fisher, Carlsbad, CA) was added (10% final concentration), followed by incubation for 4 h at 37°C. The proportion of viable cells in each well was measured in a fluorescence plate reader (Clariostar; BMGlabtech, Germany) at excitation 550 nm/emission 603 nm ([56]). Data from eight replicates were fitted by nonlinear regression to determine IC50 values using Prism (GraphPad Software, Inc.).

Setting [13] is: Escherichia coli, KPC-3 strain, read-out: MIC.
The mark [14] stands for this setting: KPC-2 strains, one value per strain.
The mark [15] stands for this setting: Enterobacter cloacae, KPC-3 strain, read-out: MIC.

Consider seven compounds from paper PMC7269481, “ZN148 Is a Modular Synthetic Metallo-β-Lactamase Inhibitor That Reverses Carbapenem Resistance in Gram-Negative Pathogens In Vivo” (Antimicrobial Agents and Chemotherapy, 2020).

Values joined by “and” are separate entries in the source; they are usually repeats but may differ in a detail not shown here. Equal entries are not always repeated. Where two headings read alike, the source gives them in different places.

T1 sequence (C7C422 29-270, looked up): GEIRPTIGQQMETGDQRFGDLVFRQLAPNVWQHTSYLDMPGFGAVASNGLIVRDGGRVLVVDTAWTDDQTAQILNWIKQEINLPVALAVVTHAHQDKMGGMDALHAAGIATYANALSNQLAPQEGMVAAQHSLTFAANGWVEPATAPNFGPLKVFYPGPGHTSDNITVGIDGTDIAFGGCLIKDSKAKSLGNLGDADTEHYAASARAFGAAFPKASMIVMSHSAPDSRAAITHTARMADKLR

`C[C@@H](O)[C@H]1C(=O)N2C(C(=O)O)=C(S[C@@H]3CN[C@H](CNS(N)(=O)=O)C3)[C@H](C)[C@H]12` [DOR, doripenem]: the MIC was 64 µg/mL in [1] (NDM-1 + GES-2 strain); above 64 µg/mL in assay [1] (NDM-5 + OXA-48 strain); 64 µg/mL in assay [1] (NDM-5 + OXA-181 strains, one value per strain); above 64 µg/mL in assay [1] (NDM-5 + OXA-232 strains, one value per strain); above 64 µg/mL in assay [2] (NDM-1 + OXA-232 strains); above 64 µg/mL in assay [2] (NDM-5 + OXA-181 strains). For the same compound, the MIC in [3] (NDM-1 + OXA-23-like strains) is above 64 µg/mL; in [3] (NDM-1 + OXA-24-like, OXA-58-like strains) it was above 64 µg/mL; in assay [4] (Escherichia coli, KPC-2 strains, one value per strain, read-out: MIC), 4 µg/mL; in assay [4] (setting [13]), 4 µg/mL; in assay [4] (setting [14]) it was 2 µg/mL; in [5] (setting [15]), 2 µg/mL. In assay [6], the MIC is above 64 µg/mL.
As to `CN(C[C@H](O)[C@@H](O)[C@H](O)[C@H](O)CO)C(=O)c1ccc(CN(Cc2ccccc2)Cc2ccccc2)nc1` [ZN222], the “meropenem MIC” value in assay [7] and in assay [8] was 32 µg/mL each time.
On to `CN(C[C@H](O)[C@@H](O)[C@H](O)[C@H](O)CO)C(=O)c1ccc(CN(Cc2ccccn2)Cc2ccccn2)cc1` [ZN228], for which the “meropenem MIC” value in assay [7] and in assay [8] was 32 µg/mL in each case. Also, the kinact is 0.00127 s⁻¹ at NDM-1 and 0.000567 s⁻¹ at VIM-2 [9]. Besides, the kinact/KI on NDM-1 is 1.83 M⁻¹ s⁻¹; at VIM-2 [9], 23.3 M⁻¹ s⁻¹.
Consider `C[C@@H](O)[C@H]1C(=O)N2C(C(=O)O)=C(SCCN=CN)C[C@H]12` [IPM, imipenem], for which the MIC in assay [1] (NDM-1 + GES-2 strain) is 16 µg/mL; in assay [1] (NDM-5 + OXA-48 strain), 32 µg/mL; in assay [2] (NDM-1 + OXA-232 strains) it was above 64 µg/mL; in assay [2] (NDM-5 + OXA-181 strains) it was above 64 µg/mL; in assay [3] (NDM-1 + OXA-23-like strains), above 64 µg/mL; in assay [4] (setting [13]), 8 µg/mL. The minimum inhibitory concentration (MIC) in assay [5] (Enterobacter cloacae, KPC-2 strains, one value per strain, read-out: MIC) was 8 µg/mL; in assay [5] (setting [15]), 16 µg/mL; in assay [5] (setting [14]), 16 µg/mL; in assay [6], above 64 µg/mL.
As for `CN(C[C@H](O)[C@@H](O)[C@H](O)[C@H](O)CO)C(=O)c1ccc(CN(Cc2ccccc2)Cc2ccccn2)nc1` [ZN223], the “meropenem MIC” value in assay [7] and in [8] was 32 µg/mL in each case. Moreover, the kinact at NDM-1 is 0.000633 s⁻¹; at VIM-2 [9], 0.000617 s⁻¹. Besides, the kinact/KI at NDM-1 is 1 M⁻¹ s⁻¹; on VIM-2 [9], 11.7 M⁻¹ s⁻¹.
For `O=C(O)CN(CCN(CC(=O)O)CC(=O)O)CC(=O)O` [EDTA], on VIM-2 [10], the “enzyme activity after unfolding and stepwise refolding, of control activity” value was above 80%. Besides, at VIM-2 [11], the “MBL activity restored by addition of exogenous zinc, compared to untreated control” value is “complete or nearly complete (∼80%) restoration of activity”.
As for `c1ccc(CN(Cc2ccccn2)Cc2ccccn2)nc1` [TPA, Tris-picolylamine], the Kd in assay [12] was 0.01 nM. Further, the “meropenem MIC” value turned out to be 1 µg/mL in assay [7] and 0.125 µg/mL in assay [8]. Moreover, the IC50 in the assay on HepG2 cells was 9.8 µM and 9.75 µM.
